From patent US20160291027A1, “METHODS FOR […] ABILITY OF A Z[…] COMPOUND TO TREAT CANCER” (Eisai R&D Management Co., Ltd., priority 2007, published 2016) come the findings set out here.

One experiment has as its system SK-MEL-28. Kind of experiment: Western blotting of response markers. The experiment is classed as cell-based. Conditions: sensitive cell line SK-MEL-28, 24 hours. The method, then: (§1) In order to identify markers that could serve as response markers for determining whether a cancer in a subject is sensitive to treatment with a zearalenone analog compound, phospho-ERK, total ERK protein, phospho-pRB, total pRB, and Cyclin D1 protein levels in a cell line sensitive to Compound 106 (e.g., SK-MEL-28) and cell lines resistant to Compound 106 (e.g., AU-565) were examined by Western blotting. 2×10^6 cancer cells (SK-MEL-28 and AU-565) were plated into a 100 mm dish and incubated for two days. Test compound, e.g., Compound 106, was then added to each dish for 24 hours at a concentration ranging from […] to […]. Culture medium was added to the cells as a control. SK-MEL-28 and AU-565 cell lysate proteins were subjected to SDS-PAGE under reducing condition and immunoblotted with an antibody against phospho-ERK1/2 (catalog #9101, Cell Signaling Technology®, Danvers, Mass.), phospho-pRB (catalog #9307, Cell Signaling Technology®, Danvers, Mass.), or Cyclin D1 (catalog #sc-8396, Santa Cruz, Calif.). ERK1 (catalog #sc-93, Santa Cruz, Calif.) or pRb (catalog #sc-102, Santa Cruz, Calif.) antibody was used for the detection of the total amount of protein.
A general note: A western blot detects proteins with antibodies after separation by electrophoresis.

For the next experiment, the system named is AU-565. Put plainly: Western blotting of response markers. The experiment is classed as cell-based. Conditions: resistant cell line AU-565; 24 hours; concentration dependent. Here is the method:
as §1

For experiment [1], the system named is LOX human melanoma xenografts. Kind of experiment: Subcutaneous LOX melanoma xenograft model. The experiment is classed as in vivo, mice. Here is the method: The purpose of this study was to investigate anticancer activity of Compound 106 in a LOX human melanoma xenograft model. LOX human melanoma cells, which carry a BRAF (V600E) mutation, were obtained from the DCTD Tumor Repository (Frederick, Md.). Cells were grown in monolayer cultures in T225 flask with RPMI-1640 growth media at 37° C. in a 5% CO2 humidified incubator. Cells were further cultivated in T225 flasks for the in vivo study. On the day of subcutaneous (s.c.) injections of the cells, growth medium was removed, flasks were washed with PBS, and cells were collected with trypsinization. Cells were washed and centrifuged for 3 minutes, and then resuspended in ice-cold PBS.
Female athymic NU/NU mice were inoculated s.c. with 1×10^6 LOX human melanoma cells. Those animals that developed tumors of approximately 150 mm^3 were selected and randomized to five groups. The study consisted of a vehicle-treated group and four drug-treated groups of 8 mice per group for a total of 40 mice on the first day of treatment. All treatments were initiated on day 6. Compound 106 was administered intravenously (i.v.) on a Q4D×3 (days 6, 10, and 14) dosing schedule at dosages of 5, 10, 20 and 40 mg/kg with a volume of injection of 0.1 mL per 10 g body weight. The control group was treated with vehicle (20% Captisol in water) alone.
The s.c. tumor volumes were measured and animals were weighed twice weekly starting with the first day of treatment. Tumor volume and relative body weight (RBW) were determined as described in Example 12.
The study was terminated fifty-nine days after cancer cell transplantation. For each Compound 106 treatment group, measurements were also terminated when mean tumor volume reached two doublings (4-fold tumor volume) from the first day of treatment.
Animals were treated intravenously on days 6, 10, and 14 (Q4D×3; indicated by arrows in FIG. 11). Tumor measurements on tumor bearing mice in all surviving groups were stopped on day 37. Then, tumor measurements were continued for tumor-free mice in the 10 mg/kg (1/8), 20 mg/kg (5/8), and 40 mg/kg (7/8) Compound 106 treatment groups. The study was terminated on day 59. Asterisks (*) indicate P<0.05 vs. control group.

Experiment [2] deals with cell lines which carried a BRAF V600E mutation. Put plainly: Cell growth assay (CellTiter-Glo or methylene blue) in solid cancer cell lines. The experiment is classed as cell-based. Conditions: 96 hours, 0.3-10000 nM. Here is the method: In a separate experiment, Compounds 091 and 106 were tested in solid cancer cell lines from different tissue types (shown in FIG. 3B for 21 cell lines for compound 091 and 19 cell lines for compound 106). All cell lines were introduced into 96-well plates and grown in the absence or continuous presence of 0.3-10000 nM of either compound 091 or compound 106 for 96 hours. Cell growth was assessed using a CellTiter-Glo® Luminescent Cell Viability Assay (Promega) or a methylene blue assay. IC50 values were determined as the concentration of a substance which inhibits cell growth by 50% compared to untreated cell populations.

`CCNc1cc(O)c2c(c1)/C=C/C[C@H](O)[C@H](O)C(=O)/C=C\[C@@H](C)[C@H](C)OC2=O` [Compound 106]: in the experiment on SK-MEL-28, the “Protein levels of p27” value is given as “increased”. For the same compound, in the experiment on SK-MEL-28, the phospho-pRB protein result is reported as “decrease”. Moreover, in the experiment with SK-MEL-28, the “protein levels of Cyclin D1” value is reported as “decreased”. The “protein levels of phospho-ERK” value in the experiment on SK-MEL-28 (concentration dependent) and with AU-565 was “inhibited” throughout. The “Tumor-free animals at the end of the study on day 59” value in experiment [1] (10 mg/kg i.v. Q4D×3) is 1/8 and one; in experiment [1] (20 mg/kg i.v. Q4D×3), 5/8 and five; in experiment [1] (40 mg/kg i.v. Q4D×3) it was 7/8 and seven. Further, the “Anticancer activity (tumor volume vs. control group)” value in experiment [1] (10, 20, and 40 mg/kg i.v. Q4D×3) is “statistically significant anticancer activity”. The “Sensitivity of BRAF V600E cell lines (concentration range)” value in experiment [2] is “low-nM or sub-μM concentration range”.
